Data on seven compounds can be found in patent US9340590B2 (priority 2011, dated 2016).

Positions of bridges follow the written chain, without caps; N, C: chain ends. Residues, ends and D or L forms follow the SMILES beside them.

What all share (experiment): cell-based
The target of one assay is hNav1.3 (Homo sapiens, UniProt Q9NY46). The conditions noted are these: IonWorks Quattro; clamped to −110 mV, depolarized to −10 mV, 5 min after compound; n=2; read-out: IWQ Use Nav1.3. In general terms: Patch clamp records ionic current or voltage across a cell membrane.
The next assay addresses hNav1.5 (Homo sapiens, UniProt Q14524). The conditions noted are these: IonWorks Quattro; clamped to −110 mV, depolarized to −10 mV, 5 min after compound; n=2; read-out: IWQ Use Nav1.5.
The target in another assay is hNav1.7 (Homo sapiens, UniProt Q15858). It counts as cell-based. The conditions noted are these: IonWorks Quattro; clamped to −110 mV, depolarized to −10 mV, 5 min after compound; n=2; read-out: IWQ Use Nav1.7.
Chain of hNav1.7 (Q15858 whole entry, looked up): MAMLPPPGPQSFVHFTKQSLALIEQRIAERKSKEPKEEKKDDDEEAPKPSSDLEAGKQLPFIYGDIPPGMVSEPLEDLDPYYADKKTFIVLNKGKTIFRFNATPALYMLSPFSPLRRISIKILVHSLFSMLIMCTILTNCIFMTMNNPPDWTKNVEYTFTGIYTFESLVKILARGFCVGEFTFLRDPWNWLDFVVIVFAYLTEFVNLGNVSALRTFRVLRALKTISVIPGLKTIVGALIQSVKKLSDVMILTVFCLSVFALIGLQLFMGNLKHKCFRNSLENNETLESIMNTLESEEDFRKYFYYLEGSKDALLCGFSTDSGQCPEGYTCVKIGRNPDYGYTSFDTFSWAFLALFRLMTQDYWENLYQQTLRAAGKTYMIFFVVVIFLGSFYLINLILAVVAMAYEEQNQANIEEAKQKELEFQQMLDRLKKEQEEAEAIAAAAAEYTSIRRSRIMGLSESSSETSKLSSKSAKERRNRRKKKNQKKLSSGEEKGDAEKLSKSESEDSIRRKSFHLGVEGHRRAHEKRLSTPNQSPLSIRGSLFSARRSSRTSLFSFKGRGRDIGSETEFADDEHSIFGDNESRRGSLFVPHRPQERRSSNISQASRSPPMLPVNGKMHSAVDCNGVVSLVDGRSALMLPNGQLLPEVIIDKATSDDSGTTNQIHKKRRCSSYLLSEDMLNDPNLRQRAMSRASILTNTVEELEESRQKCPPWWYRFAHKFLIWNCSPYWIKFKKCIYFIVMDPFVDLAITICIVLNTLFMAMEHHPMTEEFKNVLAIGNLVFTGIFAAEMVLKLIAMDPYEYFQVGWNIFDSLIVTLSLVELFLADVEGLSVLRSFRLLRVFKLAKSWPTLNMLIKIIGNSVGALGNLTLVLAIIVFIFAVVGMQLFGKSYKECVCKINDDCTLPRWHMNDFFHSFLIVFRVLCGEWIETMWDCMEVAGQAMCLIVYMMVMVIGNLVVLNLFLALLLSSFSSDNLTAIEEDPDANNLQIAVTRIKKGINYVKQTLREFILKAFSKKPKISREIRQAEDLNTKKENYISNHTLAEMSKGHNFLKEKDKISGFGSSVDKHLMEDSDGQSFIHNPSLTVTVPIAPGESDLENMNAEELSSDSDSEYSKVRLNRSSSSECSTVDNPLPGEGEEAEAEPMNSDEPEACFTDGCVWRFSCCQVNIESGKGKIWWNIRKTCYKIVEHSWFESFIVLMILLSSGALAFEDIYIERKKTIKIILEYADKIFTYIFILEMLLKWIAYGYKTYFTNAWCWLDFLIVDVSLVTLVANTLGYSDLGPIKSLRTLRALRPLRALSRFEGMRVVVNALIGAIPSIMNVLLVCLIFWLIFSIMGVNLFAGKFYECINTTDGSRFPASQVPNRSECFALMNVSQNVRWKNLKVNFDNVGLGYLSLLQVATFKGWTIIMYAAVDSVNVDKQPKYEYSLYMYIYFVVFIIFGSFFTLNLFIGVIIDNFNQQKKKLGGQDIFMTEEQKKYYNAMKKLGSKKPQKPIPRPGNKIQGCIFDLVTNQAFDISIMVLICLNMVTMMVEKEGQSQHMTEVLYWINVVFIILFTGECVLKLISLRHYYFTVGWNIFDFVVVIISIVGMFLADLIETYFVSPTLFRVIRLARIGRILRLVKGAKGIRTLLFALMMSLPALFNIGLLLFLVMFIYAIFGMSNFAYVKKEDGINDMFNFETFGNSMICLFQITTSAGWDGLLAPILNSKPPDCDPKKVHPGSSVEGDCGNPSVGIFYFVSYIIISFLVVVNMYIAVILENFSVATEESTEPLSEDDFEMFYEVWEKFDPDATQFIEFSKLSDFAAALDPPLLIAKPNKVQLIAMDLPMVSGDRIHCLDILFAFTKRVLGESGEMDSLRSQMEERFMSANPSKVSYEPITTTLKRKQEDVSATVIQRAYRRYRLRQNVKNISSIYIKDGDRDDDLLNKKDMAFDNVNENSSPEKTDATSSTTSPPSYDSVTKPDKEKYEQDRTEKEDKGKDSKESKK

Chain of hNav1.5 (Q14524 whole entry, looked up): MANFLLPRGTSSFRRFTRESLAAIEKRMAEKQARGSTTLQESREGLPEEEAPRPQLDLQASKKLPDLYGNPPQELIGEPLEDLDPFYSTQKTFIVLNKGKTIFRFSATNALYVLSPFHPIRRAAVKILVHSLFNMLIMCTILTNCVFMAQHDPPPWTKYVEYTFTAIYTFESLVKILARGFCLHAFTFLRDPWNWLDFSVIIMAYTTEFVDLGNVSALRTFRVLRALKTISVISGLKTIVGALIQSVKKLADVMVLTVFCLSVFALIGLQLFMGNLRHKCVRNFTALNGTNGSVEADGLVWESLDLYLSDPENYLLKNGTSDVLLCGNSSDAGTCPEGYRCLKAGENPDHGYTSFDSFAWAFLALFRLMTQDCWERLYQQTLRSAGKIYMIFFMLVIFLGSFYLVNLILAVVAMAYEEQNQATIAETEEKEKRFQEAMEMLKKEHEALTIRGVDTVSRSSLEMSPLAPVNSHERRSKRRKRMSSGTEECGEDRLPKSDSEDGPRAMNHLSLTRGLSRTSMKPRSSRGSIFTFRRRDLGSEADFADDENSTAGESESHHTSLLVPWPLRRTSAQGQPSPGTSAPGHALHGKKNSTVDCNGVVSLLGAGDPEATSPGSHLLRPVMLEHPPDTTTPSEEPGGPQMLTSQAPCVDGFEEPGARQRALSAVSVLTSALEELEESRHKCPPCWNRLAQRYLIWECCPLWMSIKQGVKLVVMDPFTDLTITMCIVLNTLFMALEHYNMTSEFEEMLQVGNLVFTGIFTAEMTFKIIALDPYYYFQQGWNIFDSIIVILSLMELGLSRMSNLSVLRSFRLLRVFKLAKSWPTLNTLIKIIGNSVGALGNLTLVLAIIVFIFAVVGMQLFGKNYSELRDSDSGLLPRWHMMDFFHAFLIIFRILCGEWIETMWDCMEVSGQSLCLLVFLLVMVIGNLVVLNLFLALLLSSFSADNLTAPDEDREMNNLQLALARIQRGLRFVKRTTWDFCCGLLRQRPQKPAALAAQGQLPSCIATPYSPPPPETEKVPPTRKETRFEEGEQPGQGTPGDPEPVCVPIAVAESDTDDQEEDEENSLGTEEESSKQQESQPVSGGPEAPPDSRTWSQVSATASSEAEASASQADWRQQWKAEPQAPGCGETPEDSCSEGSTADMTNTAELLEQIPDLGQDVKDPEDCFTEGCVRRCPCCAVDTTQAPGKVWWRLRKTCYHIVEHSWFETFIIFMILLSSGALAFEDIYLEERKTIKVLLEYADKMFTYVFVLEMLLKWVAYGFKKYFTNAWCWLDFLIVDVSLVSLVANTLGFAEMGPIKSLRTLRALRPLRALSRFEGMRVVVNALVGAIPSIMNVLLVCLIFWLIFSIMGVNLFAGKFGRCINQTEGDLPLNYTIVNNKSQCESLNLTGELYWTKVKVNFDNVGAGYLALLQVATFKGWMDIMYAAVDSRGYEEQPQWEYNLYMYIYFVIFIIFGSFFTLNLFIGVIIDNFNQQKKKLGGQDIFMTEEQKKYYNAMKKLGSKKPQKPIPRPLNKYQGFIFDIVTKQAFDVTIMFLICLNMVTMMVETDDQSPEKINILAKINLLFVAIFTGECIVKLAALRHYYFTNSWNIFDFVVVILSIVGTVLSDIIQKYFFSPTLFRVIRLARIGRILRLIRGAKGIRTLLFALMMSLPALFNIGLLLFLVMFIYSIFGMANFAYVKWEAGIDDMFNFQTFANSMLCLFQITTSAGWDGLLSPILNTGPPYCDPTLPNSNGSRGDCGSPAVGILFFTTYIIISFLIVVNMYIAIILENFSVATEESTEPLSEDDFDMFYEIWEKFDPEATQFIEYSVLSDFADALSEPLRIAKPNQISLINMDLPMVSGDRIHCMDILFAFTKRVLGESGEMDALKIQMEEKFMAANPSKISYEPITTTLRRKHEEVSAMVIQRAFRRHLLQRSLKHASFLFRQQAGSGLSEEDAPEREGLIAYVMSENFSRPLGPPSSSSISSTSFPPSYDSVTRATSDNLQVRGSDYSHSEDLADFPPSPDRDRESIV

On to `CC[C@H](C)[C@@H]1NC(=O)[C@@H]2CSSC[C@@H]3NC(=O)[C@H](C(C)C)NC(=O)[C@H](CC(C)C)NC(=O)[C@H](CC(N)=O)NC(=O)[C@@H]4CCCN4C(=O)[C@H](CCCNC(=N)N)NC(=O)[C@H](CSSC[C@H](NC(=O)[C@@H](N)CC(=O)O)C(=O)N[C@@H](CC(C)C)C(=O)NCC(=O)N[C@@H](Cc4ccccc4)C(=O)N[C@@H](CC(N)=O)C(=O)N[C@@H](CCCNC(=N)N)C(=O)N[C@@H](CCCCN)C(=O)N2)NC(=O)[C@H](CSSC[C@@H](C(=O)N[C@@H](CCCCN)C(=O)N[C@@H](Cc2ccc(O)cc2)C(=O)N[C@H](C(=O)N[C@@H](Cc2ccccc2)C(N)=O)C(C)C)NC(=O)[C@H](Cc2c[nH]c4ccccc24)NC(=O)[C@H](CCCCN)NC(=O)[C@H](Cc2c[nH]cn2)NC(=O)[C@H]([C@@H](C)O)NC(=O)[C@H](CCCNC(=N)N)NC(=O)[C@H](CO)NC3=O)NC(=O)[C@H](CCCCN)NC(=O)[C@H](CC(=O)O)NC(=O)[C@H](CC(N)=O)NC(=O)[C@H](CC(=O)O)NC(=O)[C@@H]2CCCN2C1=O` [SEQ ID NO: 278] (H-DCLGFNRKCIPDNDKCCRPNLVCSRTHKWCKYVF-NH2; disulfide 2-17, 9-23, 16-30), for which the IC50 worked out at 6.28 µM on hNav1.3, 10.3 µM at hNav1.5 and 6.89 µM at hNav1.7.

`CC[C@H](C)[C@@H]1NC(=O)[C@@H]2CSSC[C@@H]3NC(=O)[C@H](C(C)C)NC(=O)[C@H](CC(C)C)NC(=O)[C@H](CC(N)=O)NC(=O)[C@@H]4CCCN4C(=O)[C@H](CCCNC(=N)N)NC(=O)[C@H](CSSC[C@H](NC(=O)[C@@H](N)CC(=O)O)C(=O)N[C@@H](CC(C)C)C(=O)NCC(=O)N[C@@H](Cc4ccccc4)C(=O)N[C@@H](CCC(N)=O)C(=O)N[C@@H](CCCNC(=N)N)C(=O)N[C@@H](CCCCN)C(=O)N2)NC(=O)[C@H](CSSC[C@@H](C(=O)N[C@@H](CCCCN)C(=O)N[C@@H](Cc2ccc(O)cc2)C(=O)N[C@H](C(=O)N[C@@H](Cc2ccccc2)C(N)=O)C(C)C)NC(=O)[C@H](Cc2c[nH]c4ccccc24)NC(=O)[C@H](CCCCN)NC(=O)[C@H](Cc2c[nH]cn2)NC(=O)[C@H]([C@@H](C)O)NC(=O)[C@H](CCCNC(=N)N)NC(=O)[C@H](CO)NC3=O)NC(=O)[C@H](CCCCN)NC(=O)[C@H](CC(=O)O)NC(=O)[C@H](CC(N)=O)NC(=O)[C@H](CC(=O)O)NC(=O)[C@@H]2CCCN2C1=O` [SEQ ID NO: 279] (H-DCLGFQRKCIPDNDKCCRPNLVCSRTHKWCKYVF-NH2; disulfide 2-17, 9-23, 16-30): the IC50 on hNav1.3 came out at 5.96 µM; at hNav1.5 it was 7.57 µM; at hNav1.7 it was 8.62 µM.

As for `CC[C@H](C)[C@@H]1NC(=O)[C@@H]2CSSC[C@@H]3NC(=O)[C@H](C(C)C)NC(=O)[C@H](CC(C)C)NC(=O)[C@H](CC(N)=O)NC(=O)[C@@H]4CCCN4C(=O)[C@H](CCCNC(=N)N)NC(=O)[C@H](CSSC[C@H](NC(=O)[C@@H](N)CC(=O)O)C(=O)N[C@@H](CC(C)C)C(=O)NCC(=O)N[C@@H](Cc4ccccc4)C(=O)NCC(=O)N[C@@H](CCCNC(=N)N)C(=O)N[C@@H](CCCCN)C(=O)N2)NC(=O)[C@H](CSSC[C@@H](C(=O)N[C@@H](CCCCN)C(=O)N[C@@H](Cc2ccc(O)cc2)C(=O)N[C@H](C(=O)N[C@@H](Cc2ccccc2)C(N)=O)C(C)C)NC(=O)[C@H](Cc2c[nH]c4ccccc24)NC(=O)[C@H](CCCCN)NC(=O)[C@H](Cc2c[nH]cn2)NC(=O)[C@H]([C@@H](C)O)NC(=O)[C@H](CCCNC(=N)N)NC(=O)[C@H](CO)NC3=O)NC(=O)[C@H](CCCCN)NC(=O)[C@H](CC(=O)O)NC(=O)[C@H](CC(N)=O)NC(=O)[C@H](CC(=O)O)NC(=O)[C@@H]2CCCN2C1=O` [SEQ ID NO: 280] (H-DCLGFGRKCIPDNDKCCRPNLVCSRTHKWCKYVF-NH2; disulfide 2-17, 9-23, 16-30), the values for the IC50 on hNav1.3, on hNav1.5 and at hNav1.7 were 0.14 µM, 8.2 µM and 0.18 µM, respectively.

For `CC[C@H](C)[C@@H]1NC(=O)[C@@H]2CSSC[C@@H]3NC(=O)[C@H](C(C)C)NC(=O)[C@H](CC(C)C)NC(=O)[C@H](CC(N)=O)NC(=O)[C@@H]4CCCN4C(=O)[C@H](CCCNC(=N)N)NC(=O)[C@H](CSSC[C@H](NC(=O)[C@@H](N)CC(=O)O)C(=O)N[C@@H](CC(C)C)C(=O)NCC(=O)N[C@@H](Cc4ccccc4)C(=O)N[C@@H](Cc4c[nH]cn4)C(=O)N[C@@H](CCCNC(=N)N)C(=O)N[C@@H](CCCCN)C(=O)N2)NC(=O)[C@H](CSSC[C@@H](C(=O)N[C@@H](CCCCN)C(=O)N[C@@H](Cc2ccc(O)cc2)C(=O)N[C@H](C(=O)N[C@@H](Cc2ccccc2)C(N)=O)C(C)C)NC(=O)[C@H](Cc2c[nH]c4ccccc24)NC(=O)[C@H](CCCCN)NC(=O)[C@H](Cc2c[nH]cn2)NC(=O)[C@H]([C@@H](C)O)NC(=O)[C@H](CCCNC(=N)N)NC(=O)[C@H](CO)NC3=O)NC(=O)[C@H](CCCCN)NC(=O)[C@H](CC(=O)O)NC(=O)[C@H](CC(N)=O)NC(=O)[C@H](CC(=O)O)NC(=O)[C@@H]2CCCN2C1=O` [SEQ ID NO: 281] (H-DCLGFHRKCIPDNDKCCRPNLVCSRTHKWCKYVF-NH2; disulfide 2-17, 9-23, 16-30), the IC50 at hNav1.3 worked out at 7.77 µM; at hNav1.5, 10.1 µM; on hNav1.7, 4.72 µM.

As for `CC[C@H](C)[C@@H]1NC(=O)[C@H](Cc2ccccc2)NC(=O)CNC(=O)[C@H](CC(C)C)NC(=O)[C@@H](NC(=O)[C@@H](N)CC(=O)O)CSSC[C@@H]2NC(=O)[C@@H]3CSSC[C@@H](C(=O)N[C@@H](CCCCN)C(=O)N[C@@H](Cc4ccc(O)cc4)C(=O)N[C@H](C(=O)N[C@@H](Cc4ccccc4)C(N)=O)C(C)C)NC(=O)[C@H](Cc4c[nH]c5ccccc45)NC(=O)[C@H](CCCCN)NC(=O)[C@H](Cc4c[nH]cn4)NC(=O)[C@H]([C@@H](C)O)NC(=O)[C@H](CCCNC(=N)N)NC(=O)[C@H](CO)NC(=O)[C@H](CSSC[C@H](NC(=O)[C@H](CCCCN)NC(=O)[C@H](CCCNC(=N)N)NC1=O)C(=O)N[C@@H]([C@@H](C)CC)C(=O)N1CCC[C@H]1C(=O)N[C@@H](CC(=O)O)C(=O)N[C@@H](CC(N)=O)C(=O)N[C@@H](CC(=O)O)C(=O)N[C@@H](CCCCN)C(=O)N3)NC(=O)[C@H](C(C)C)NC(=O)[C@H](CC(C)C)NC(=O)[C@H](CC(N)=O)NC(=O)[C@@H]1CCCN1C(=O)[C@H](CCCNC(=N)N)NC2=O` [SEQ ID NO: 282] (H-DCLGFIRKCIPDNDKCCRPNLVCSRTHKWCKYVF-NH2; disulfide 2-17, 9-23, 16-30), the IC50 on hNav1.3 was found to be 0.06 µM; on hNav1.5, 8.63 µM; on hNav1.7, 0.07 µM.

On to `CC[C@H](C)[C@@H]1NC(=O)[C@@H]2CSSC[C@@H]3NC(=O)[C@H](C(C)C)NC(=O)[C@H](CC(C)C)NC(=O)[C@H](CC(N)=O)NC(=O)[C@@H]4CCCN4C(=O)[C@H](CCCNC(=N)N)NC(=O)[C@H](CSSC[C@H](NC(=O)[C@@H](N)CC(=O)O)C(=O)N[C@@H](CC(C)C)C(=O)NCC(=O)N[C@@H](Cc4ccccc4)C(=O)N[C@@H](CO)C(=O)N[C@@H](CCCNC(=N)N)C(=O)N[C@@H](CCCCN)C(=O)N2)NC(=O)[C@H](CSSC[C@@H](C(=O)N[C@@H](CCCCN)C(=O)N[C@@H](Cc2ccc(O)cc2)C(=O)N[C@H](C(=O)N[C@@H](Cc2ccccc2)C(N)=O)C(C)C)NC(=O)[C@H](Cc2c[nH]c4ccccc24)NC(=O)[C@H](CCCCN)NC(=O)[C@H](Cc2c[nH]cn2)NC(=O)[C@H]([C@@H](C)O)NC(=O)[C@H](CCCNC(=N)N)NC(=O)[C@H](CO)NC3=O)NC(=O)[C@H](CCCCN)NC(=O)[C@H](CC(=O)O)NC(=O)[C@H](CC(N)=O)NC(=O)[C@H](CC(=O)O)NC(=O)[C@@H]2CCCN2C1=O` [SEQ ID NO: 284] (H-DCLGFSRKCIPDNDKCCRPNLVCSRTHKWCKYVF-NH2; disulfide 2-17, 9-23, 16-30), for which the IC50 was 0.71 µM on hNav1.3, 16.9 µM on hNav1.5 and 1.02 µM on hNav1.7.

Consider `CC[C@H](C)[C@@H]1NC(=O)[C@@H]2CSSC[C@@H]3NC(=O)[C@H](C(C)C)NC(=O)[C@H](CC(C)C)NC(=O)[C@H](CC(N)=O)NC(=O)[C@@H]4CCCN4C(=O)[C@H](CCCNC(=N)N)NC(=O)[C@H](CSSC[C@H](NC(=O)[C@@H](N)CC(=O)O)C(=O)N[C@@H](CC(C)C)C(=O)NCC(=O)N[C@@H](Cc4ccccc4)C(=O)N[C@@H]([C@@H](C)O)C(=O)N[C@@H](CCCNC(=N)N)C(=O)N[C@@H](CCCCN)C(=O)N2)NC(=O)[C@H](CSSC[C@@H](C(=O)N[C@@H](CCCCN)C(=O)N[C@@H](Cc2ccc(O)cc2)C(=O)N[C@H](C(=O)N[C@@H](Cc2ccccc2)C(N)=O)C(C)C)NC(=O)[C@H](Cc2c[nH]c4ccccc24)NC(=O)[C@H](CCCCN)NC(=O)[C@H](Cc2c[nH]cn2)NC(=O)[C@H]([C@@H](C)O)NC(=O)[C@H](CCCNC(=N)N)NC(=O)[C@H](CO)NC3=O)NC(=O)[C@H](CCCCN)NC(=O)[C@H](CC(=O)O)NC(=O)[C@H](CC(N)=O)NC(=O)[C@H](CC(=O)O)NC(=O)[C@@H]2CCCN2C1=O` [SEQ ID NO: 285] (H-DCLGFTRKCIPDNDKCCRPNLVCSRTHKWCKYVF-NH2; disulfide 2-17, 9-23, 16-30), for which the IC50 worked out at 0.28 µM at hNav1.3, 18.7 µM at hNav1.5 and 0.59 µM on hNav1.7.
